# According to patent publication US20030087830A1, “Low molecular weight components of cartilage, complexes of metals with amino acids, DI-peptides and analogs thereof; processes for preparation and therapeutic uses thereof” (priority 2001, published 2003):
# Key:
# [1] = system: Endothelial cells (HUVEC, BAEC); assay: Endothelial cell proliferation; format: cell-based, human / bovine; settings: for EC50: 48 hours, copper equivalent, NA = less than 50% at 1.25 mM copper equivalent, read-out: EC proliferation (EC50 mM)
# Method: Endothelial and tumor cell proliferation assays were performed to determine the ability of test samples to inhibit endothelial cell proliferation (antiangiogenic activity), normal cell proliferation,and tumor cell proliferation.
# Endothelial cells (Human umbilical vein endothelial cells (HUVEC), bovine aortic endothelial cells (BAEC)), skeletal muscle cells, human dermal fibroblasts (all from Clonetics, Walkersville, Md.) were respectively maintained in EBM-2, MDEM, SKGM and FGFM-2 complete media according to manufacturer's instructions. Tumor rat glioblastoma cell line (C6) was maintained in DMEM (Sigma, Oaksville, Ontario) supplemented with 10% fetal calf serum (FCS) and antibiotics in 5% CO2. Briefly, cells seeded in 96-well sterile tissue culture dishes were treated with increasing concentrations of different test samples for a period of 48 hours at 37° C. Cell number was then evaluated by a calorimetric assay using the cell proliferation reagent tetrazolium salt and the fluorimetric assay using DNA dye (Hoescht) according to the procedure established by the manufacturer (Boehringer Mannhein). The conversion of these tetrazolium salts into formazan occurs only in metabolically active cells. The percentage of cell inhibition was determined by comparison to untreated cells.
# (§1) According to the endothelial cell proliferation assay, the relative effectiveness of two compounds is compared by reference to the EC50 thereof. The EC50 is the concentration of compound at which the number of endothelial cells is reduced by 50% as compared to control. The efficacy of the test samples in EVT is established by the percent of eggs with altered angiogenesis at a given inhibitor dose of 0.6 mg of copper equivalent (see FIG. 6 for examples). A comparison of the antiangiogenic activity of the compounds of the present invention with divalent metal salts (CuCl2, MgCl2, ZnCl2, CoCl2) and uncoupled alpha-amino acids, alpha-imino acids, dipeptides, and nitrogenated molecules comprising a carboxylic acid group, such as creatine, is provided to illustrate that the formation of the amino acid-copper complex gives rise to complexes having antiangiogenic activity.
# [2] = system: blood vessel formation in the vitelline membrane of chick embryo; assay: Embryonic Vascularization Test (EVT); format: in vivo; settings: for EVT (% of inhibition): activity at 0.6 mg equivalent Copper; for EVT activity (in words): in vivo
# Method: The Embryonic Vascularization Test (EVT) was performed to determine the ability of test samples to inhibit the formation of new blood vessels (antiangiogenic activity).
# The normal development of a chick embryo involves the formation of an external vascular system located in the vitelline membrane which carries nutrients from the vitellus (yolk) to the developing embryo. When placed onto the vitelline membrane, antiangiogenic substances can inhibit the blood vessel formation that occurs in the vitelline membrane. Briefly, methylcellulose discs (an inert solid and transparent matrix) containing different test samples were placed on the external border of the vascular perimeter of the vitelline membrane, where the angiogenic process occurs. Vascularization was assessed 24 hours after disc deposition, and results were expressed as the percent of embryos in which blood vessel formation was affected. The blood vessel formation was considered affected when its growing path was either deviated, or diminished or when there was no growth observed beyond the disc as compared to the negative control. The results are expressed as 0, +, and ++ where 0 is for a lower response than 25 percent of the eggs; + is for a response between 25 and 50 percent; and ++ is for an antiangiogenic response observed in more than 50 percent of the eggs.
# as §1
# [3] = Affinity of the amino acid with copper; format: physicochemical
# Endothelial cells [4] = assay: Endothelial cell migration assay (VEGF, modified Boyden chamber); format: cell-based
# Method: The endothelial cell migration assay was performed to determine the ability of test samples to inhibit the chemotaxic activity of vascular endothelial growth factor (VEGF;R/D System, MN) using a modified Boyden chamber (Transwell™, Corning/Costar). Briefly, polyvinylidene difluoride filters (PVDF) were coated with Pronectin F (Biosources, CA), a constituent of basement membrane barrier. Boyden chambers were assembled by adding VEGF to the culture media in the lower chamber (chemoattractant). Endothelial cells suspended in cultured media in the presence or the absence of the test samples were added to the upper chamber. The chambers were then incubated for a period of 4.5 hours at 37° C. At the end of the incubation period, the cells from both side of the PVDF membrane were fixed with 3.7% formaldehyde. Cells from the upper surface of the membrane were mechanically removed, and the cells remaining on the underside of the membrane were stained with crystal violet (0.5%; Sigma). Cells were then carefully rinsed and the dye fixed to the cells was quantified with a microplate reader ([…]) after its solubilization with a solution of 50% citric acid (0.1M) in water and 50% ethanol.
# Endothelial cells [5] = assay: Endothelial cell tubule formation assay (tubulogenesis); format: cell-based; set-up: key to Tubulogenesis: 0: Numerous capillary-like tube forming pentagonal network; +: Decrease of capillary-like tubes; ++: Dramatic decrease of capillary-like tubes; +++: Absence of capillary-like tubes
# Method: The endothelial cell tubule formation assay is a semi-quantitative assay that was performed to determine the ability of test samples to inhibit this multi-step process, which involves cell adhesion, migration, differentiation and growth, using a commercial kit (Chemicon). Briefly, endothelial cells were seeded on solid gel of Ecmatrix™ (Chemicon), basement proteins prepared from the Engelbreth Holm-Swarm (EHS) mouse tumor in microplate in a E-99 media (Sigma) supplemented with 5% FBS and VEGF (50 ng/ml) in the presence or absence of the test sample. Cells were incubated for a period of 24 hours at 37° C. Pictures were taken on the entire tissue culture dish using a binocular microscope for further evaluation.
# [6] = system: bFGF-stimulated blood vessel formation in Matrigel; assay: Matrigel in vivo angiogenesis assay; set-up: species or system C57B1/6 mice; settings: intra-peritoneal daily 10 days
# Method: The Matrigel™ in vivo assay was performed to determine the ability of test samples to inhibit blood vessel formation (antiangiogenic activity) and to establish their bioavailability in vivo.
# Briefly, liquid Matrigel™ (Becton Dickinson, Bedford, Mass.) was maintained at 4° C. and mixed thoroughly for at least 3 hours with 1,500 ng/ml basic fibroblast growth factor (bFGF) (R&D Systems, Minneapolis, Minn.) used as the primary angiogenic stimulus. The mixture (0.5 ml) was injected subcutaneously into the ventral midline of C57B1/6 mice, and treatment with different test samples or saline solution was initiated the same day. Additional animals were also injected with Matrigel™ containing no bFGF to serve as baseline controls. The animals were treated daily for a 10 day period (intra-peritonealy, 0.2 ml of each dose). At day 11, animals were injected with FITC-dextran 20 min prior to euthanizing treated mice. Matrigel™ gels were removed along with underlying peritoneum and prepared for FITC-dextran detection by fluorimetry. The concentration of FITC-dextran in the gels was calculated from a known concentration of FITC-dextran using a standard curve. The FITC-dextran content of the gels from compound-treated animals and controls was expressed as a percent of the positive bFGF-treated controls after the baseline control of FITC-dextran levels were subtracted from all groups.
# [7] = 2.5 mM free (not complexed) ligand
molecule,measurement,setting,value
"[Cl-].[Cl-].[Co+2] [Co++, reference compound]",EC50,[1],0.27 mM
"NCC(=O)[O-].NCC(=O)[O-].[Cu+2] [Compound 1, Gly:Cu:GIy]",EVT (% of inhibition),[2],++ (++ more than 50% of inhibition)
same,EC50,[1],0.27 mM
same,Affinity of the AA with Cooper,[3],16.0
"C[C@H](N)C(=O)[O-].C[C@H](N)C(=O)[O-].[Cu+2] [Compound 2, L-Ala:Cu:L-Ala]",EVT (% of inhibition),[2],++ (++ more than 50% of inhibition)
same,EC50,[1],0.28 mM
same,Affinity of the AA with Cooper,[3],15.9
"N[C@@H](CO)C(=O)[O-].N[C@@H](CO)C(=O)[O-].[Cu+2] [Compound 3, L-Ser:Cu:L-Ser]",EVT (% of inhibition),[2],0 (0 non-active (less than 25% of inhibition))
same,EVT activity (in words),[2],inactive
same,EC50,[1],0.34 mM
same,Affinity of the AA with Cooper,[3],15.4
"CC(C)C(N)C(=O)[O-].CC(C)C(N)C(=O)[O-].[Cu+2] [Compound 4, L-Val:Cu:L-Val]",EVT (% of inhibition),[2],+ (+ between 25-50% of inhibition)
same,EC50,[1],0.35 mM
same,Affinity of the AA with Cooper,[3],15.2
"N=C(N)NCCC[C@H](N)C(=O)[O-].N=C(N)NCCC[C@H](N)C(=O)[O-].[Cu+2] [Compound 8, L-Arg:Cu:L-Arg]",EVT (% of inhibition),[2],+ (+ between 25-50% of inhibition)
same,EC50,[1],0.32 mM
same,Affinity of the AA with Cooper,[3],14.9
"NCCCC[C@H](N)C(=O)[O-].NCCCC[C@H](N)C(=O)[O-].[Cu+2] [Compound 9, L-Lys:Cu:L-Lys]",EVT (% of inhibition),[2],++ (++ more than 50% of inhibition)
same,EC50,[1],0.35 mM
same,Affinity of the AA with Cooper,[3],14.4
"NC(=O)CC[C@H](N)C(=O)[O-].NC(=O)CC[C@H](N)C(=O)[O-].[Cu+2] [Compound 11, L-Gln:Cu:L-Gln]",EVT (% of inhibition),[2],0 (0 non-active (less than 25% of inhibition))
same,EC50,[1],0.76 mM
same,Affinity of the AA with Cooper,[3],15.5
"CC[C@H](C)[C@H](N)C(=O)[O-].CC[C@H](C)[C@H](N)C(=O)[O-].[Cu+2] [Compound 12, L-Ile:Cu:L-IIe]",EC50,[1],0.48 mM
same,Affinity of the AA with Cooper,[3],16.6
"CC(N)C(=O)[O-].CC(N)C(=O)[O-].[Cu+2] [Compound 13, D-Ala:Cu:D-Ala]",Endothelial cell proliferation activity (in words),[1],active
same,EC50,[1],0.44 mM
"CC(O)C(N)C(=O)[O-].CC(O)C(N)C(=O)[O-].[Cu+2] [Compound 16, D-Thr:Cu:D-Thr]",EVT activity (in words),[2],active
same,Endothelial cell proliferation activity (in words),[1],active
same,EC50,[1],0.3 mM
"N[C@H](Cc1c[nH]cn1)C(=O)[O-].N[C@H](Cc1c[nH]cn1)C(=O)[O-].[Cu+2] [Compound 17, D-His:Cu:D-His]",EVT activity (in words),[2],inactive
same,Endothelial cell proliferation activity (in words),[1],inactive
"C[C@H](N)C(=O)O.N[C@@H](CCC(=O)[O-])C(=O)[O-].[Cu+2] [Compound 20, L-Ala:Cu:L-Glu]",EC50,[1],0.28 mM
"C[C@@H](O)[C@H](N)C(=O)[O-].N[C@@H](CC(=O)O)C(=O)[O-].[Cu+2] [Compound 25, L-Asp:Cu:L-Thr]",EC50,[1],0.29 mM
"O=C([O-])[C@@H]1CCCN1.O=C([O-])[C@@H]1CCCN1.[Cu+2] [Compound 28, L-Pro:Cu:L-Pro]",Endothelial cell proliferation activity (in words),[1],active complex
same,EC50,[1],0.28 mM
same,Affinity of the AA with Cooper,[3],17.6
"[Cl][Cu][Cl] [CuCl2, copper chloride, reference compound]",Cell migration activity (in words),Endothelial cells [4],did not show any activity
same,Cell Migration (% inhibition),Endothelial cells [4]; 1.25 mM,6%
same,Tubulogenesis activity (in words),Endothelial cells [5],did not show any activity
same,Tubulogenesis,Endothelial cells [5]; 1.25 mM,0
same,Matrigel in vivo % inhibition,[6]; 7.0 mg/Kg equivalent copper,24.2%
"N[C@@H](CC(=O)O)C(=O)O [Free Asp, aspartic acid, reference compound]",Tubulogenesis,Endothelial cells [5]; [7],0
"N[C@@H](Cc1c[nH]cn1)C(=O)O [Free His, histidine, reference compound]",Tubulogenesis,Endothelial cells [5]; [7],0
"C[C@@H](O)[C@H](N)C(=O)O [Free Thr, threonine, reference compound]",Tubulogenesis,Endothelial cells [5]; [7],0
"[Cl-].[Cl-].[Zn+2] [Zn++, reference compound]",EC50,[1],0.19 mM
(Creatine)2-Cu [Compound 34],Endothelial cell proliferation activity (in words),[1],excellent activity
same,EC50,[1],0.28 mM
D-Asp:Cu:D-Asp [Compound 14],Endothelial cell proliferation activity (in words),[1],active
same,EC50,[1],0.37 mM
D-Glu:Cu:D-GIu [Compound 15],Endothelial cell proliferation activity (in words),[1],active
same,EC50,[1],0.35 mM
Gly:Cu:L-Asp [Compound 22],EC50,[1],0.41 mM
Gly:Cu:L-Glu [Compound 24],EC50,[1],0.33 mM
Gly:Cu:L-Thr [Compound 23],EC50,[1],0.48 mM
L-AIa:Cu:L-Asp [Compound 21],EC50,[1],0.32 mM
L-Ala:Cu:Gly [Compound 18],EC50,[1],0.29 mM
L-Ala:Cu:L-Thr [Compound 19],EC50,[1],0.36 mM
L-Asp-Co-L-Asp [Compound 30],EC50,[1],0.27 mM
L-Asp-Zn-L-Asp [Compound 32],EC50,[1],0.18 mM
L-Asp:Cu:L-Glu [Compound 26],EC50,[1],0.25 mM
L-Glu:Cu:L-Glu [Compound 7],EVT (% of inhibition),[2],++ (++ more than 50% of inhibition)
same,EC50,[1],0.35 mM
same,Matrigel in vivo % inhibition,[6]; 1.4 mg/Kg equivalent copper,42.6%
same,Matrigel in vivo % inhibition,[6]; 7.0 mg/Kg equivalent copper,71.2%
L-Glu:Cu:L-Thr [Compound 27],EC50,[1],0.4 mM
